Set-up: species or system Yorkshire cross swine
Settings: in vivo
Description: PuraMatrix™, a peptide solution comprising Ac-RADARADARADARADA-NH2 (Ac-Arg-Ala-Asp-Ala-Arg-Ala-Asp-Ala-Arg-Ala-Asp-Ala-Arg-Ala-Asp-Ala-NH2) (SEQ ID NO: 58) in water was used as an embolic agent in a porcine model through angiography, gross necropsy assessment, and histopathology assessment. One female Yorkshire cross swine was tested. The weight of the swine at the time of testing was 46.5 kg. Feed and water were provided per standard operating procedures. There were no contaminants in the food or water that were expected to interfere with the conduct or results of the study. The swine was acquired from a test facility approved animal supplier. The Swine participated in an incoming physical exam, and after a period of acclimation was again examined. The swine was fasted a minimum of 12 hours prior to the procedures. The animals were sedated and anesthetized by an intramuscular or subcutaneous injection of Telazol (2-10 mg/kg) and Xylazine (0.5=5.0 mg/kg). Propofol (to effect) was given to aid in sedation. An endotracheal tube was used to ensure proper ventilation and the animals were maintained under general anesthesia with inhalant isofluorante (0.1 to 5.0%). Heparin (50-300 units/kg, IV) was administered throughout the procedure.
On the day of testing, the swine was 2 months, 25 days old. The swine was sedated and prepared for surgery. […]

## Ac-RADARADARADARADA-NH2 [PuraMatrix™]
  adverse events throughout the testing: no adverse events
